Values after ≈ are worked out from the molar mass of the structure shown. Like-named read-outs stand apart in the source and are kept apart here.

One test deals with Aspergillus flavus. In words: Antifungal activity, Aspergillus flavus (inhibition zone and MIC). Type of test: cell-based. The following applies: Aspergillus flavus fungi.
For test [1], the system named is breast cancer cell line. In words: Antioxidant activity. The following applies: against a breast cancer cell line. It counts as cell-based.
Test [2] concerns Colon carcinoma cells (HCT-116 cell line). In words: Anti-cancer activity, colon carcinoma cells. It counts as cell-based.
Test [3] has as its system breast cancer cell line. In words: Anti-cancer activity, breast cancer cell line. Type of test: cell-based, human.
The subject of the next test is E. coli. Briefly: Antimicrobial activity, E. coli (inhibition zone and MIC). Type of test: cell-based. The following applies: E. coli bacteria.
Another test concerns Microccus luteus. Briefly: Antimicrobial activity, Microccus luteus (inhibition zone and MIC). Type of test: cell-based.
[4] abbreviates: Homo sapiens, read-out: IC50 (anticancer activity).

One may read the MIC as the lowest concentration found to suppress growth. `OC(Cn1cncn1)(Cn1cncn1)c1ccc(F)cc1F` [Fluconazol, reference compound] showed an inhibition zone in the test with Aspergillus flavus of 22.00 mm. The minimum inhibitory concentration (MIC) in the test with Aspergillus flavus (read-out: MIC) was found to be 2.5 µg/mL (≈ 8.16 µM).
For the compound “5,10,15,20-Tetrakis (4-hydroxyphenyl)-Porphyrins Pd(II) complex [prepared complex]”, the “IC50 (antioxidant activity)” value in the test with breast cancer cell line [1] was 10.5 µg/mL. For the same compound, the entries for the “IC50 (anticancer activity)” value (in test [2]; with breast cancer cell line [3]) were 4.9 µg/mL and 4.5 µg/mL, respectively. Besides, the MIC was 1.75 µg/mL against Aspergillus flavus, 1.5 µg/mL with E. coli and 0.75 µg/mL with Microccus luteus. Besides, the inhibition zone with Aspergillus flavus is on record as 23.25 mm; in the test on Aspergillus flavus (listed as present complex), “about 23.25 mm”; in the test on E. coli (listed as prepared nano complex), 33 mm; in the test with E. coli (listed as present complex) it was “about 33 mm”; with Microccus luteus it was 41.5 mm; with Microccus luteus (listed as present complex), “about 41.5 mm”.
For `O=C1O[C@H]([C@@H](O)CO)C(O)=C1O` [1-ascorbic acid, reference compound], the “IC50 (antioxidant activity)” value in the test with breast cancer cell line [1] turned out to be 55.2 µg/mL (≈ 313 µM).
Usually IC50 stands for the concentration at which inhibition is half-maximal. As to `CC[C@]1(O)C[C@@H]2CN(CCc3c([nH]c4ccccc34)[C@@](C(=O)OC)(c3cc4c(cc3OC)N(C)[C@H]3[C@@](O)(C(=O)OC)[C@H](OC(C)=O)[C@]5(CC)C=CCN6CC[C@]43[C@@H]65)C2)C1` [vinblastine, reference compound], the IC50 stood at 5.41 µg/mL (≈ 6.67 µM) in test [2] (setting [4]) and 5.2 µg/mL (≈ 6.41 µM) with breast cancer cell line [3] (setting [4]).
Take `CC1COc2c(N3CCN(C)CC3)c(F)cc3c(=O)c(C(=O)O)cn1c23` (stereo not drawn) [Ofloxacin, reference compound]: the inhibition zone in the test on E. coli is reported as 30 mm; in the test on Microccus luteus it was 39.75 mm. The MIC in the test on E. coli (Escherichia coli, read-out: MIC) came out at 2.25 µg/mL (≈ 6.23 µM); in the test with Microccus luteus (read-out: MIC), 1.25 µg/mL (≈ 3.46 µM).
